In patent US11945826B2, “Hydroxypyridoxazepines as NRF2 activators” (GLAXOSMITHKLINE INTELLECTUAL PROPERTY DEVELOPMENT LIMITED, priority 2019, dated 2024):

Assays:
Mouse PK Study = format: in vivo; details: male CD1 mice, 30 mg/kg oral suspension, blood
Description: All studies were conducted after review by the GSK Institutional Animal Care and Use Committee and in accordance with the GSK Policy on the Care, Welfare and Treatment of Laboratory Animals. The oral suspension pharmacokinetic study was carried out on a single study day; a total of three male CD1 mice were used.
The compounds used in this study were the compound of Example 1, herein, and Compound A (the compound of Example 1 of WO 2018/109646).
The oral suspension dose was prepared in 1% aqueous methylcellulose. Each animal received a nominal dose of 30 mg/kg (10 mL/kg dose volume) as an oral gavage. Blood samples (approximately 0.025 mL each) were collected from a tail vein. Blood samples were collected prior to dosing and at target times of 15, 30, 60, 120, 240, 480, and 1440 minutes following oral gavage. A 25 μL aliquot was added to a non-heparinized tube containing 25 μL water and quick frozen on solid carbon dioxide and stored at approximately −80° C. until analyzed by liquid chromatography/tandem mass spectroscopy (LC/MS/MS) for test compound concentration.
Pharmacokinetic parameters for all in vivo PK studies were calculated using non-compartmental methods with Phoenix WinNonlin version 6.1.0 or 8.1.0. All parameters were calculated using actual blood sampling times and actual dosages for each animal. […]

human PXR = target: T1, human PXR (Homo sapiens, UniProt O75469); assay: Human PXR Activation Assay; format: cell-based; details: for EC50: HepG2 transfected with human PXR and CYP3A4 promoter luciferase, 24 h; for Emax at 24 h: human, percent maximum induction compared to 10 μM rifampicin
T1 construct: expression vectors containing full length human PXR; expressed in transfected cells; host or cells: HepG2 (human hepatocellular carcinoma line), transient transfection with FuGENE
T1 sequence (O75469 1-434): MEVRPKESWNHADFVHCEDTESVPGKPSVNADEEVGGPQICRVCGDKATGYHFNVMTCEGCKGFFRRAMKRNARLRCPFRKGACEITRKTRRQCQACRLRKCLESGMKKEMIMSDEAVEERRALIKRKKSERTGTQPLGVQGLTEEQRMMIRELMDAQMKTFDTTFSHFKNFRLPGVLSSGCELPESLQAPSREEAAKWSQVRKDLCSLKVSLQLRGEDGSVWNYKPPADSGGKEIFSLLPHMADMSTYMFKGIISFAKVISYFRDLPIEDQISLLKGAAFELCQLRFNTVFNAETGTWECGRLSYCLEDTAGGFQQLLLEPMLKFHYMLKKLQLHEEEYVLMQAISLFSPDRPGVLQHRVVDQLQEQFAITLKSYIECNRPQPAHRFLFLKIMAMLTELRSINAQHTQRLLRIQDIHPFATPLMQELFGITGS
Description: Transactivation activity of PXR ligands was measured in a human hepatocellular carcinoma line (HepG2) batch transiently transfected using FuGENE™ with expression vectors containing full length human PXR and the human CYP3A4 promoter driving luciferase expression. Following transfection, cells are frozen until required for assay.
On day of assay, cells were recovered, counted on a CEDEX instrument then resuspended to a density of 50,000 cells/mL in phenol red-free DMEM-F12 supplemented with 10% charcoal/dextran-treated FBS. 20 μl of cell suspension was then dispensed to each well of white Nunc 384-well plates, containing […] of test compounds in DMSO. Cells were incubated for 24 h in the presence compound after which time […] of Steady-Lite™ luciferase substrate was added to each well. Luciferase activity was quantified by measurement on the Pherastar™ imager and activity was expressed as percent maximum induction as compared to induction by 10 μM rifampicin.

[1] = Mouse Plasma Protein Binding Study; format: in vitro ADME; details: heparinized mouse plasma, pH 7.5, ultracentrifugation 37° C. 3 hours, read-out: Plasma Protein Binding, % bound (converted)
Description: Stock solutions of the compound of Example 1, herein, and Compound A (the compound of Example 1 of WO 2018/109646), were prepared in dimethyl sulfoxide (DMSO) at a concentration of 1 mg/mL. Incubation mixtures were prepared by diluting the stock solution into heparinized mouse plasma to a concentration of 2000 ng/mL. The final concentration of DMSO was 0.2%. The thawed plasma was centrifuged to remove any debris. If necessary, the pH of the plasma sample was adjusted to approximately 7.5 with 1% aqueous phosphoric acid prior to use. Incubation mixtures were prepared. Triplicate 10 μL aliquots of each incubation mixture were collected and analyzed to verify initial compound concentration. Four aliquots of each incubation mixture were placed into separate polyallomer ultracentrifuge tubes. The incubation mixtures were centrifuged in a Beckman Type 42.2 Ti rotor at 42,000 rpm (214,361×g) at 37° C. for 3 hours with maximum acceleration and deceleration. […] The samples were quick frozen on solid carbon dioxide and stored at approximately −80° C. until analyzed by liquid chromatography/tandem mass spectroscopy (LC/MS/MS) for test compound concentration. Total recovery of compound from the ultracentrifugation tubes was calculated with the following formula: […]
Percent unbound (Fu) by ultracentrifugation was calculated with the following formula: […]

Mouse Pharmacokinetics Clearance/Bioavailability (Mouse PK Study) [mL/min/kg]	EC50 (human PXR) [µM]	Emax at 24 h (human PXR) [%]	fraction unbound at 3 h, 2000 ng/mL [1]	SMILES
31	25	56	0.003	CC[C@@H]1CN(Cc2cc([C@@H](CC(=O)O)c3ccc4c(nnn4C)c3C)ccc2C)Cc2ncccc2O1 [Compound A, reference compound]
15.6	> 50	10	0.084	CC[C@@H]1CN(Cc2cc([C@@H](CC(=O)O)c3ccc4c(nnn4C)c3C)ccc2C)Cc2nc(O)ccc2O1 [Example 1, (R)-3-(1,4-dimethyl-1H-benzo[d][1,2,3]triazol-5-yl)-3-(3-(((R)-2-ethyl-7-hydroxy-2,3-dihydropyrido[2,3-f][1,4]oxazepin-4(5H)-yl)methyl)-4-methylphenyl)propanoic acid]
